Data as given in US20040213743A1, “Sensorially active substances embedded in plastic” (priority 1996, published 2004).
Read-outs that look alike come from different tables or passages of the source.

Legend:
rats = rats gnawing on denatonium benzoate-treated flexible PVC; type: in vivo
[1] = solubility in plastic and solvents; type: physicochemical; conditions: molten flexible PVC
[2] = cited from earlier work
[3] = cited from earlier work; remark: listed apart in the source
[4] = approximately 0.2 grams of denatonium benzoate in 100 grams of clear flexible PVC

effect on rats which ingest the treated PVC (rats; [4]): pronounced soporific effect
solubility in polyvinyl chloride (PVC) [1]: readily dissolves
solubility in polyvinyl chloride (PVC) ([1]; listed as Bitrex™): soluble in PVC
SMILES: CC[N+](CC)(CC(=O)Nc1c(C)cccc1C)Cc1ccccc1 [denatonium benzoate]
deterrence of gnawing on the PVC (rats; [4]): does not deter rats from gnawing and eating the PVC
deterrence of gnawing on the PVC (rats; approximately 2.5 grams of denatonium benzoate in 100 grams of clear flexible PVC, also when sample thoroughly washed): quite effective in discouraging rats from gnawing on the plastic
skin irritation ([2]; at concentrations of 0.05%): does not irritate the skin
skin irritation ([2]; even in fairly high concentrations): non-irritating to the skin
solubility in organic solvents ([3]; benzene and chloroform): readily soluble
solubility in ether ([3]; ether): nearly insoluble
